Measurements published in article PMC8401933 (Molecules, 2021).

Assays:
Test in all cases: KINOMEscan binding
Details in all cases: read-out: Percent Control
CSNK1G1 = molecular target: T1, CSNK1G1 (Homo sapiens, UniProt Q9HCP0)
T1 construct: purchased Eurofins DiscoverX KINOMEscan

PRKG1 = molecular target: T2, PRKG1 (Homo sapiens, UniProt Q13976)
T2 construct: purchased Eurofins DiscoverX KINOMEscan

CDK4-cyclinD1 = molecular target: T3, CDK4-cyclinD1 (Homo sapiens, UniProt P11802)
T3 construct: purchased Eurofins DiscoverX KINOMEscan

LIMK1 = molecular target: T4, LIMK1 (Homo sapiens, UniProt P53667)
T4 construct: purchased Eurofins DiscoverX KINOMEscan

PFCDPK1(P.falciparum) = molecular target: T5, PFCDPK1(P.falciparum) (Plasmodium falciparum, UniProt P62344)
T5 construct: purchased Eurofins DiscoverX KINOMEscan
T5 sequence (P62344 whole entry): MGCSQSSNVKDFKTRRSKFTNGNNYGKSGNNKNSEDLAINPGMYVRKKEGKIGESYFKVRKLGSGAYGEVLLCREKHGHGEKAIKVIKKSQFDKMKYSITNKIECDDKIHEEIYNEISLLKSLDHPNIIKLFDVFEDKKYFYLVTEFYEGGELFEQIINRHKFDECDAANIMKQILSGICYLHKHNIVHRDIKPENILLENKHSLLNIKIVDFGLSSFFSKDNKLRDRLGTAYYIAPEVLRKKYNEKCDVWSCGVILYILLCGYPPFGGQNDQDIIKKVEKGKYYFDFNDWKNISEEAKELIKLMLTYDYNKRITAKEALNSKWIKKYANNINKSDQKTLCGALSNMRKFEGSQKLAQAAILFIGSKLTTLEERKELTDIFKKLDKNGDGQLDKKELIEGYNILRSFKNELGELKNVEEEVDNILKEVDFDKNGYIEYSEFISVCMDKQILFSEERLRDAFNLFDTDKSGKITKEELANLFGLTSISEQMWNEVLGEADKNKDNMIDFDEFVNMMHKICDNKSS

AMPK-alpha2 = molecular target: T6, AMPK-alpha2 (Homo sapiens, UniProt P54646)
T6 construct: purchased Eurofins DiscoverX KINOMEscan

PLK1 = molecular target: T7, PLK1 (Homo sapiens, UniProt P53350)
T7 construct: purchased Eurofins DiscoverX KINOMEscan

MYLK4 = molecular target: T8, MYLK4 (Homo sapiens, UniProt Q86YV6)
T8 construct: purchased Eurofins DiscoverX KINOMEscan

FGFR1 = molecular target: T9, FGFR1 (Homo sapiens, UniProt P11362)
T9 construct: purchased Eurofins DiscoverX KINOMEscan
T9 sequence (P11362 22-822): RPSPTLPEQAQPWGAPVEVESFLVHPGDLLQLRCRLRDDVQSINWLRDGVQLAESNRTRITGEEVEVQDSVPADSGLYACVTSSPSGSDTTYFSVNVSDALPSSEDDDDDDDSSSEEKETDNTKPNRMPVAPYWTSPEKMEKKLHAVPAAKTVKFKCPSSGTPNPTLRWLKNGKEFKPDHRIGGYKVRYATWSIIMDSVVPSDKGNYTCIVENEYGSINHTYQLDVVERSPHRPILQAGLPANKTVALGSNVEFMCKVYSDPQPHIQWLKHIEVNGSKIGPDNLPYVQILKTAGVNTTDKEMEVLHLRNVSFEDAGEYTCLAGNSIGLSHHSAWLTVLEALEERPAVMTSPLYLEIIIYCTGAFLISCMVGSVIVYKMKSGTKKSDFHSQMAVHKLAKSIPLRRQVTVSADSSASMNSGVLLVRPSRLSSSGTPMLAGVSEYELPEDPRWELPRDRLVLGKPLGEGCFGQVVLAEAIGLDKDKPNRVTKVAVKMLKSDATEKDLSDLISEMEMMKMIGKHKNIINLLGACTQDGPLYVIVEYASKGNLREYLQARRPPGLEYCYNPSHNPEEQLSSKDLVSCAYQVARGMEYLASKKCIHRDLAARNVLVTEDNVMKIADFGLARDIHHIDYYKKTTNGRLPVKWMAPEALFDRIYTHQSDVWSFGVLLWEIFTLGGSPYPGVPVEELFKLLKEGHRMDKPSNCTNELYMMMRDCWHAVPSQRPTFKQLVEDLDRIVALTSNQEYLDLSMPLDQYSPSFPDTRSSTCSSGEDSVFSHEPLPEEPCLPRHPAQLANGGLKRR

TRKC = molecular target: T10, TRKC (Homo sapiens, UniProt Q16288)
T10 construct: purchased Eurofins DiscoverX KINOMEscan
T10 sequence (Q16288 32-839): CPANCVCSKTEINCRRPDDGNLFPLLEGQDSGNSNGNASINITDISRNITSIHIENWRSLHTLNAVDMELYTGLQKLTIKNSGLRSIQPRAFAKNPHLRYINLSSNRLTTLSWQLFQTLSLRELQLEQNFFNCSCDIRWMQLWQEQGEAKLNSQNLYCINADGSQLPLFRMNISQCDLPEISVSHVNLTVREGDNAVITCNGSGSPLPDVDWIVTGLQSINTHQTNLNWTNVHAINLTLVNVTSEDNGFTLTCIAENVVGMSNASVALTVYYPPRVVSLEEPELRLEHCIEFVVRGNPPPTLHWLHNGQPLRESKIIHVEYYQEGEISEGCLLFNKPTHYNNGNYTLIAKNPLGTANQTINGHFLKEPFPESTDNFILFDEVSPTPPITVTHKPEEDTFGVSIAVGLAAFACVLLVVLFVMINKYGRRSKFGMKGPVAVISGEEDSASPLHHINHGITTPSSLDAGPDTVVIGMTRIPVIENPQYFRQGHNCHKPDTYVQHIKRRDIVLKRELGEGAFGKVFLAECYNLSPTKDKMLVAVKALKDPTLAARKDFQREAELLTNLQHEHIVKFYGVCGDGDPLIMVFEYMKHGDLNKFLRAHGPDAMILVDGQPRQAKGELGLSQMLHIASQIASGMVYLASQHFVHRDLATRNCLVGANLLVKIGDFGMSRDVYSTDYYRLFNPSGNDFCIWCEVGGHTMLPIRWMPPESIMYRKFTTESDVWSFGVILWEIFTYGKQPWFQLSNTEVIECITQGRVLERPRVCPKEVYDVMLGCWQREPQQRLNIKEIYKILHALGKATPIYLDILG

WEE1 = molecular target: T11, WEE1 (Homo sapiens, UniProt P30291)
T11 construct: purchased Eurofins DiscoverX KINOMEscan
T11 sequence (P30291 whole entry): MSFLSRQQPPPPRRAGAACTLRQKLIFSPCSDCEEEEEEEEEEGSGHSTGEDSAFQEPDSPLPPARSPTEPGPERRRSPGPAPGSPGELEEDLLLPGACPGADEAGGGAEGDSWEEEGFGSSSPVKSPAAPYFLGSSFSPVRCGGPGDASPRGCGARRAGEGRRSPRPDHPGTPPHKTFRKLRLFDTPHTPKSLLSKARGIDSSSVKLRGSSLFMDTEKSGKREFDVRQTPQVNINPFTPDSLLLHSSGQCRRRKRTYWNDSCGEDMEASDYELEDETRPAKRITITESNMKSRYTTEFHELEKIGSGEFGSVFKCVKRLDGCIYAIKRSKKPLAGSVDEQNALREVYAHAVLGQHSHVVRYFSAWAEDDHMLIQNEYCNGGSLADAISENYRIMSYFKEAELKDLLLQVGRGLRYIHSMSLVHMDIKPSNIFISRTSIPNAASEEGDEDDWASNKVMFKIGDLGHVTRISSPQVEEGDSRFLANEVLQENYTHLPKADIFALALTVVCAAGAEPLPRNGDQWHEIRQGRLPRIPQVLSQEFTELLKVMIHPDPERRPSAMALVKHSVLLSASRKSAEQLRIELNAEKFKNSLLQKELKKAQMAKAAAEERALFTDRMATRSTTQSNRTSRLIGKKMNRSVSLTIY

TAOK3 = molecular target: T12, TAOK3 (Homo sapiens, UniProt Q9H2K8)
T12 construct: purchased Eurofins DiscoverX KINOMEscan

SYK = molecular target: T13, SYK (Homo sapiens, UniProt P43405)
T13 construct: purchased Eurofins DiscoverX KINOMEscan

PLK4 = molecular target: T14, PLK4 (Homo sapiens, UniProt O00444)
T14 construct: purchased Eurofins DiscoverX KINOMEscan

CSNK1G3 = molecular target: T15, CSNK1G3 (Homo sapiens, UniProt Q9Y6M4)
T15 construct: purchased Eurofins DiscoverX KINOMEscan

FER = molecular target: T16, FER (Homo sapiens, UniProt P16591)
T16 construct: purchased Eurofins DiscoverX KINOMEscan
T16 sequence (P16591 whole entry): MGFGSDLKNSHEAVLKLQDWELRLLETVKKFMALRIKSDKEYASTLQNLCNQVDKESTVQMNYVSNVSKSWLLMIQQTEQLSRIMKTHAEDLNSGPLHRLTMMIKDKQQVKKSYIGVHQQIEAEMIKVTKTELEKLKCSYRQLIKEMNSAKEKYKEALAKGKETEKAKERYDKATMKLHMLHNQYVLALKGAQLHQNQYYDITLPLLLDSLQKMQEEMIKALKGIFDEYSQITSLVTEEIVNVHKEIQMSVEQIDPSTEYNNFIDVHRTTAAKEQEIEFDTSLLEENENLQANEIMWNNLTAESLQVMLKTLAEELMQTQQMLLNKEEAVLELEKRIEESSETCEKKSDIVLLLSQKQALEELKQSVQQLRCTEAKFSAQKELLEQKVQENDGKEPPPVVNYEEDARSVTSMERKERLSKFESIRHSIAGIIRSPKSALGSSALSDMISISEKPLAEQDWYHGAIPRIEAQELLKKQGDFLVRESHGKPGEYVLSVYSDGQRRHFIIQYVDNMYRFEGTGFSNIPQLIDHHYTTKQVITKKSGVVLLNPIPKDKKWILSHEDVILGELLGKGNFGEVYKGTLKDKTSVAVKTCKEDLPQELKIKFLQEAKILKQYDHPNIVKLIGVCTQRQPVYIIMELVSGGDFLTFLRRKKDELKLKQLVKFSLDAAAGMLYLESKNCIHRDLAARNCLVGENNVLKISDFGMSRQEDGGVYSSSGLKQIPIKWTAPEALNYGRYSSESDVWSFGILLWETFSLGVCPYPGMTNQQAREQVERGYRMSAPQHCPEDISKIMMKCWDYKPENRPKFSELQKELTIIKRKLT

MAP4K4 = molecular target: T17, MAP4K4 (Homo sapiens, UniProt O95819)
T17 construct: purchased Eurofins DiscoverX KINOMEscan

GRK2 = molecular target: T18, GRK2 (Homo sapiens, UniProt P25098)
T18 construct: purchased Eurofins DiscoverX KINOMEscan

IKK-alpha = molecular target: T19, IKK-alpha (Homo sapiens, UniProt O15111)
T19 construct: purchased Eurofins DiscoverX KINOMEscan

RIPK4 = molecular target: T20, RIPK4 (Homo sapiens, UniProt P57078)
T20 construct: purchased Eurofins DiscoverX KINOMEscan

CDC2L2 = molecular target: T21, CDC2L2 (Homo sapiens, UniProt Q9UQ88)
T21 construct: purchased Eurofins DiscoverX KINOMEscan

ERBB4 = molecular target: T22, ERBB4 (Homo sapiens, UniProt Q15303)
T22 construct: purchased Eurofins DiscoverX KINOMEscan

MKNK1 = molecular target: T23, MKNK1 (Homo sapiens, UniProt Q9BUB5)
T23 construct: purchased Eurofins DiscoverX KINOMEscan

PIK3CB = molecular target: T24, PIK3CB (Homo sapiens, UniProt P42338)
T24 construct: purchased Eurofins DiscoverX KINOMEscan

MAPKAPK5 = molecular target: T25, MAPKAPK5 (Homo sapiens, UniProt Q8IW41)
T25 construct: purchased Eurofins DiscoverX KINOMEscan

SGK2 = molecular target: T26, SGK2 (Homo sapiens, UniProt Q9HBY8)
T26 construct: purchased Eurofins DiscoverX KINOMEscan

BUB1 = molecular target: T27, BUB1 (Homo sapiens, UniProt O43683)
T27 construct: purchased Eurofins DiscoverX KINOMEscan

S6K1 = molecular target: T28, S6K1 (Homo sapiens, UniProt P23443)
T28 construct: purchased Eurofins DiscoverX KINOMEscan

PIM2 = molecular target: T29, PIM2 (Homo sapiens, UniProt Q9P1W9)
T29 construct: purchased Eurofins DiscoverX KINOMEscan

RAF1 = molecular target: T30, RAF1 (Homo sapiens, UniProt P04049)
T30 construct: purchased Eurofins DiscoverX KINOMEscan

DDR1 = molecular target: T31, DDR1 (Homo sapiens, UniProt Q08345)
T31 construct: purchased Eurofins DiscoverX KINOMEscan

CDK3 = molecular target: T32, CDK3 (Homo sapiens, UniProt Q00526)
T32 construct: purchased Eurofins DiscoverX KINOMEscan

FLT4 = molecular target: T33, FLT4 (Homo sapiens, UniProt P35916)
T33 construct: purchased Eurofins DiscoverX KINOMEscan
T33 sequence (P35916 25-1363): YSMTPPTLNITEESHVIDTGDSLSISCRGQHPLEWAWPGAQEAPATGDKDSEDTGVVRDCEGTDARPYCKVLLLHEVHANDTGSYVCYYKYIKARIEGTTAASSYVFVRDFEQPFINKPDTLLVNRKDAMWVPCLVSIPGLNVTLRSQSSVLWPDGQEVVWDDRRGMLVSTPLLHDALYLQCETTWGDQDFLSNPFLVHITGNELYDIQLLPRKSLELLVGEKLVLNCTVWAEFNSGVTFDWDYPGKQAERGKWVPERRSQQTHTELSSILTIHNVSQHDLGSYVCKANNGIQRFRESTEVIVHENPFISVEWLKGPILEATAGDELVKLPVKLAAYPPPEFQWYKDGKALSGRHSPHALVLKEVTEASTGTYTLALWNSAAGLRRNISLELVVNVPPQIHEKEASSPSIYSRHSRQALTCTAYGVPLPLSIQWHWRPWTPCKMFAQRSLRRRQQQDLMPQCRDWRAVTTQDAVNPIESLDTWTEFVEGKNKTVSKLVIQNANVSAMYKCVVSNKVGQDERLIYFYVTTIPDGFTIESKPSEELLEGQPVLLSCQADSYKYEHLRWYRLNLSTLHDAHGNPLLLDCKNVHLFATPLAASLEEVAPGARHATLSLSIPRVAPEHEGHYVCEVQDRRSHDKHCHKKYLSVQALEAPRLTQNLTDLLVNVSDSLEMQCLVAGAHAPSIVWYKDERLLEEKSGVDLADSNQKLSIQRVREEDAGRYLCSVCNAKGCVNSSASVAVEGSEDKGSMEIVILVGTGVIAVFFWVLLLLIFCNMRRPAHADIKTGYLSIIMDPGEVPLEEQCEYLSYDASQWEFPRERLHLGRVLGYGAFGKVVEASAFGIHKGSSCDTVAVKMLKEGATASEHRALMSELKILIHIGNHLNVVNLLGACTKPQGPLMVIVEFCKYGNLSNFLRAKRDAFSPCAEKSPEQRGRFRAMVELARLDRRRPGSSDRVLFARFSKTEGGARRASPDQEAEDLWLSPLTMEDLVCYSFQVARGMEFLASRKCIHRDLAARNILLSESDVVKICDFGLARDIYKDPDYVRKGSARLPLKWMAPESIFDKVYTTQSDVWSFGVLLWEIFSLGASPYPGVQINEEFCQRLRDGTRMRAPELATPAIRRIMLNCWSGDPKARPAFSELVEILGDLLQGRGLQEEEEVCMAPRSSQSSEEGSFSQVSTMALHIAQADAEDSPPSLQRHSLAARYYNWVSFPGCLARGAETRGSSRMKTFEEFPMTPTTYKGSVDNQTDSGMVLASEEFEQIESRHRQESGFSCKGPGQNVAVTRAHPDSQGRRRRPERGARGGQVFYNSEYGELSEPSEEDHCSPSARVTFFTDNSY

MYO3B = molecular target: T34, MYO3B (Homo sapiens, UniProt Q8WXR4)
T34 construct: purchased Eurofins DiscoverX KINOMEscan

CSNK1E = molecular target: T35, CSNK1E (Homo sapiens, UniProt P49674)
T35 construct: purchased Eurofins DiscoverX KINOMEscan

EPHA4 = molecular target: T36, EPHA4 (Homo sapiens, UniProt P54764)
T36 construct: purchased Eurofins DiscoverX KINOMEscan

CDK2 = molecular target: T37, CDK2 (Homo sapiens, UniProt P24941)
T37 construct: purchased Eurofins DiscoverX KINOMEscan

JNK3 = molecular target: T38, JNK3 (Homo sapiens, UniProt P53779)
T38 construct: purchased Eurofins DiscoverX KINOMEscan

CAMK4 = molecular target: T39, CAMK4 (Homo sapiens, UniProt Q16566)
T39 construct: purchased Eurofins DiscoverX KINOMEscan

ACVR1 = molecular target: T40, ACVR1 (Homo sapiens, UniProt Q04771)
T40 construct: purchased Eurofins DiscoverX KINOMEscan

GRK1 = molecular target: T41, GRK1 (Homo sapiens, UniProt Q15835)
T41 construct: purchased Eurofins DiscoverX KINOMEscan

SRPK3 = molecular target: T42, SRPK3 (Homo sapiens, UniProt Q9UPE1)
T42 construct: purchased Eurofins DiscoverX KINOMEscan

[1] = molecular target: T43, ABL1(H396P)-phosphorylated (Homo sapiens, UniProt P00519, H396P)
T43 construct: purchased Eurofins DiscoverX KINOMEscan

ERBB2 = molecular target: T44, ERBB2 (Homo sapiens, UniProt P04626)
T44 construct: purchased Eurofins DiscoverX KINOMEscan

ACVR2B = molecular target: T45, ACVR2B (Homo sapiens, UniProt Q13705)
T45 construct: purchased Eurofins DiscoverX KINOMEscan

CC(C)NC(=O)COc1cccc(-c2nc(Nc3ccc4[nH]ncc4c3)c3ccccc3n2)c1 [KD025, 2-(3-(4-((1H-indazol-5-yl)amino)quinazolin-2-yl)phenoxy)-N-isopropylacetamide]
remaining binding at 10 µM (CSNK1G1): 70%
remaining binding at 10 µM (PRKG1): 100%
remaining binding at 10 µM (CDK4-cyclinD1): 89%
remaining binding at 10 µM (LIMK1): 92%
remaining binding at 10 µM (PFCDPK1(P.falciparum)): 66%
remaining binding at 10 µM (AMPK-alpha2): 75%
remaining binding at 10 µM (PLK1): 100%
remaining binding at 10 µM (MYLK4): 17%
remaining binding at 10 µM (FGFR1): 95%
remaining binding at 10 µM (TRKC): 100%
remaining binding at 10 µM (WEE1): 100%
remaining binding at 10 µM (TAOK3): 89%
remaining binding at 10 µM (SYK): 100%
remaining binding at 10 µM (PLK4): 93%
remaining binding at 10 µM (CSNK1G3): 100%
remaining binding at 10 µM (FER): 75%
remaining binding at 10 µM (MAP4K4): 87%
remaining binding at 10 µM (GRK2): 89%
remaining binding at 10 µM (IKK-alpha): 100%
remaining binding at 10 µM (RIPK4): 100%
remaining binding at 10 µM (CDC2L2): 80%
remaining binding at 10 µM (ERBB4): 57%
remaining binding at 10 µM (MKNK1): 68%
remaining binding at 10 µM (PIK3CB): 89%
remaining binding at 10 µM (MAPKAPK5): 89%
remaining binding at 10 µM (SGK2): 100%
remaining binding at 10 µM (BUB1): 69%
remaining binding at 10 µM (S6K1): 74%
remaining binding at 10 µM (PIM2): 85%
remaining binding at 10 µM (RAF1): 62%
remaining binding at 10 µM (DDR1): 6.4%
remaining binding at 10 µM (CDK3): 92%
remaining binding at 10 µM (FLT4): 86%
remaining binding at 10 µM (MYO3B): 100%
remaining binding at 10 µM (CSNK1E): 61%
remaining binding at 10 µM (EPHA4): 93%
remaining binding at 10 µM (CDK2): 93%
remaining binding at 10 µM (JNK3): 78%
remaining binding at 10 µM (CAMK4): 100%
remaining binding at 10 µM (ACVR1): 32%
remaining binding at 10 µM (GRK1): 64%
remaining binding at 10 µM (SRPK3): 5.7%
remaining binding at 10 µM [1]: 82%
remaining binding at 10 µM (ERBB2): 81%
remaining binding at 10 µM (ACVR2B): 91%
